Assay results reported in US8022235B2, “Compositions of phospholipid ether boronic acids and esters and methods for their synthesis and use” (Cellectar, Inc., priority 2007, dated 2011).
Entries after “also recorded” stand apart in the source; their conditions may differ.

How the values were obtained:
[1] = system: Liver CT-26; assay: Imaging and tissue distribution, tumor model; type: in vivo, Mouse xenograft; details: Colorectal adenocarcinoma
[2] = system: Mammary MCF-7; assay: Imaging and tissue distribution, tumor model; type: in vivo, Rat; details: Adenocarcinoma
[3] = biological target: T1, albumin fraction (Rattus norvegicus, UniProt P02770); assay: PAGE analysis of plasma radioactivity distribution after iodine-125 labeled 1; type: in vivo, Walker-256 tumor-bearing rats; details: plasma 7 days after administration
T1 construct: plasma was isolated from Walker-256 tumor-bearing rats; from tissue; host or cells: plasma of Walker-256 tumor-bearing rats
T1 sequence (P02770 25-608): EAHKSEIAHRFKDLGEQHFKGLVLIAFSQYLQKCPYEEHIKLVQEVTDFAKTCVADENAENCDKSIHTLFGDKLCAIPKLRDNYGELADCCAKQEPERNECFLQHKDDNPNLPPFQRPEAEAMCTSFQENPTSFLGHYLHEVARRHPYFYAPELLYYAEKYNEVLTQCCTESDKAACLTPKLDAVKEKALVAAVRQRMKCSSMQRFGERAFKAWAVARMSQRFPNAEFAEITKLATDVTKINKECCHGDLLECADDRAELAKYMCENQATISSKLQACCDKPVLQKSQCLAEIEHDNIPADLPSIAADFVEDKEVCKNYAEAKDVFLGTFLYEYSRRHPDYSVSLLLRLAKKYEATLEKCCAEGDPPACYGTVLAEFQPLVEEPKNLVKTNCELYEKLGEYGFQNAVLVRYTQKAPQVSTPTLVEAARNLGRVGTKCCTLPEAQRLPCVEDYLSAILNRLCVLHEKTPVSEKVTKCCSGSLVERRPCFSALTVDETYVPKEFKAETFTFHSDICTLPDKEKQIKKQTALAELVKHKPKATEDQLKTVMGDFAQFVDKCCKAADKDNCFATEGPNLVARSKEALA
Description: In order to examine the transport properties of PLE analogs, plasma was isolated from Walker-256 tumor-bearing rats 7 days after administration of iodine-125 labeled 1. The distribution of radioactivity in the plasma compartment of a rat receiving 1 (NM404) was studied.

[4] = system: Cervical; assay: Imaging and tissue distribution, tumor model; type: in vivo, Spontaneous Mouse; details: Adenocarcinoma
[5] = system: Adrenal RL-251; assay: Imaging and tissue distribution, tumor model; type: in vivo, SCID Mouse
[6] = system: Lung NCI H-69 (Oat Cell); assay: Imaging and tissue distribution, tumor model; type: in vivo, Nude Mouse; details: Adenocarcinoma
[7] = system: Melanoma; assay: Imaging and tissue distribution, tumor model; type: in vivo, Mouse xenograft; details: Adenocarcinoma
Description: (§4) Imaging and tissue distribution studies performed in mouse models aimed at determining the uptake characteristics in a wide variety of tumor models are summarized in Table 1, below.

[8] = system: animal tumor models; assay: Imaging and biodistribution across animal tumor models (general statements)
Description: See, for example, U.S. patent application Ser. Nos. 10/906,687, 11/177,740, 11/316,620 and 11/382,645. Due to deficiencies in metabolic phospholipase enzymes in the membranes of malignant tumor cells, the prevailing hypothesis for this specificity is that phospholipid ether analogs become trapped exclusively in tumor cell membranes because of their inability to become metabolized and eliminated by the cancerous cell. Thus, the differential clearance rates of phospholipid ethers from normal cells versus neoplastic tumor cells are responsible for this specificity.
The reason for the retention of PLE and analogs in cancer cells remains unknown. Without being held to any particular theory, however, the prevailing hypothesis, is that radioiodinated PLE and APC analogs become trapped in tumor cell membranes because of their inability to be metabolized and eliminated. On the other hand, such lipid molecules are metabolized and cleared by normal tissues, including the liver.
These PLE analogs are specifically designed to incorporate aromatic radioiodine in order to render the molecule stable towards in vivo deiodination.

[9] = system: Glioma L9; assay: Imaging and tissue distribution, tumor model; type: in vivo, Rat
Description: as §4

[10] = system: spontaneous murine lung tumors; assay: Bioscan imaging of spontaneous lung tumor; type: in vivo, ApcMin mouse; details: 125I-NM404, image 4 days post injection, 2 mm tumor
[11] = system: Retinoblastoma; assay: Imaging and tissue distribution, tumor model; type: in vivo, Spontaneous Mouse; details: Blastoma
[12] = system: Min Mouse Intestinal; assay: Imaging and tissue distribution, tumor model; therapeutic responses at imaging doses; type: in vivo
Description: During the course of mouse tumor uptake and retention studies with “imaging” doses (15-20 μCi/20 g mouse) of ^125I-labeled NM404, several apparent therapeutic responses have been observed (unpublished results). […] Some of these animals also lost all hair above larger mammary tumors at around 8 days after injection. Moreover, these mice also get intestinal tumors and usually suffer from intestinal bleeding resulting in severe anemia, which renders their feet white. […] Another compelling example of tumor regression is illustrated in FIG. 13. Two litter mates each received SCC1 and SCC6 xenografts in their left and right flanks, respectively. One mouse received a single injection of ^125I-NM404 (20 μCi). […] These coincidental findings were reconfirmed in two separate age-matched groups each involving more than 6 mice.

[13] = system: TRAMP prostate; assay: Imaging and tissue distribution, tumor model; type: in vivo, Spontaneous mouse; details: Adenocarcinoma
[14] = system: human PC-3 prostate tumor xenografts; assay: Scintigraphy, microPET and tissue distribution in PC-3 tumor model; type: in vivo, SCID mice; details: metastatic prostate tumor model, scintigraphy, FIG. 9
[15] = Toxicology studies of unlabeled NM404 in rats; type: in vivo; details: for toxic effects: 14 days observation
Description: (§1) In preparation for human clinical trials, unlabeled NM404 was subjected to independent (University of Buffalo Toxicology Research Center) acute toxicity evaluation at 1200 times the anticipated imaging mass dose in rats and rabbits. […] Due to its selective tumor uptake and retention properties in a variety of rodent tumor models and subsequent excellent safety profile in rats and rabbits, NM404 was selected to undergo initial human pharmacokinetic evaluation in non-small cell lung cancer (NSCLC) patients. Patients underwent planar gamma-camera scintigraphy after receiving an injection of ^131I-NM404 (<1 mCi).
(§2) Formal toxicology studies of NM404 in male rats and rabbits were performed at the Toxicology Research Center of the State University of New York at Buffalo under the direction of Dr. Paul Kostyniak. Drug vehicle and drug product were provided to Dr. Kostyniak by Dr. Raymond Counsell of the University of Michigan for testing as described in the appended synopses of Study 27 and Study 28. […] Human safety studies of unlabeled NM404 were initiated in normal male humans at a mass of 10 times the anticipated imaging dose and about 21 times the anticipated therapy dose. […] This toxicology study was performed under GLP conditions.
(§3) Subsequently, the inventors initiated a toxicology study of unlabeled NM404 in female rats and rabbits (Study 31 and Study 32) at the Toxicology Research Center at SUNY-Buffalo in order to expand the patient population to be studied in the NSCLC Phase 1 clinical trial. […] Human safety studies of unlabeled NM404 were initiated in normal female humans at a mass of 10 times the initially anticipated imaging dose and about 21 times the anticipated therapy dose. […] This toxicology study was performed under GLP conditions.

[16] = Toxicology studies of unlabeled NM404 in rabbits; type: in vivo; details: for toxic effects: 14 days observation
Description: as §1, §2, §3

[17] = system: Adrenal H-295; assay: Imaging and tissue distribution, tumor model; type: in vivo, SCID Mouse; details: Adenocarcinoma
[18] = system: Melanoma A-375; assay: Imaging and tissue distribution, tumor model; type: in vivo, Nude Mouse; details: Adenocarcinoma
[19] = system: animal tumor models; details: radioiodinated analogs, xenograft and spontaneous tumor rodent models, previous reports; cited from earlier work
[20] = system: Hepatocellular Carcinoma; assay: Imaging and tissue distribution, tumor model; type: in vivo, Spontaneous TGF-α mouse; details: Adenocarcinoma
Description: as §4

[21] = system: Pancreatic c-myc and kras; assay: Imaging and tissue distribution, tumor model; type: in vivo, Spontaneous mice; details: Adenocarcinoma
Description: as §4

[22] = 1200 times the anticipated imaging mass dose

For `C[N+](C)(C)CCOP(=O)([O-])OCCCCCCCCCCCCCCCCCCc1ccc(I)cc1` [NM404, 18-(p-iodophenyl)-octadecyl phosphocholine], the Uptake [1] was “Yes”, the Uptake [2] was “Yes” and the “circulating radioactivity associated with the albumin fraction” value [3] was 88%. For the same compound, the Uptake [4] was “Yes”, the Uptake ([5]; Adenocarcinoma) was “Yes” and the tumor retention ([5]; human adrenal tumor xenograft, FIG. 7) was “Prolonged tumor retention”. For the same compound, the Uptake [6] was “Yes”, the Uptake [7] was “Yes” and the “tumor concentrations over time” value ([8]; following administration) was “almost stable for many weeks”. The “elimination from normal tissue” value ([8]; in vivo) was “eliminated from normal tissue within a few days”, the tumor retention ([8]; over 27 animal tumor models, every model and tumor type studied) was “tumor-selective retention” and the tumor selectivity ([8]; radioiodinated, 37 of 37 models investigated) was “remarkable tumor selectivity”. The “uptake into the tumor tissue” value ([8]; up to) was 10-25 % of the injected dose, the Uptake [9] was “Yes” and the “uptake / retention in tumor” value [10] was “retained in spontaneous murine lung tumors; also recorded: intense uptake”. For the same compound, the Uptake [11] was “Yes”, the Uptake ([12]; Adenocarcinoma) was “Yes” and the “survival vs untreated litter mates” value ([12]; after 21 days, both intestinal models) was “easily outlived their untreated litter mates”. The “feet color (anemia from intestinal bleeding)” value ([12]; around 5 days after a single injection, ^125I-labeled, 15-20 μCi/20 g mouse) was “reverted to a pink color”, the “intestinal tumors remaining at dissection” value ([12]; of the expected 20 or so, ^125I-labeled, 15-20 μCi/20 g mouse) was “only a very few, if any” and the Uptake [13] was “Yes”. The “localization in lymph node metastases” value [14] was “localize in lymph node metastases”, the acute toxicity [15, 22] was “well tolerated and no acute toxicities were found” and the toxic effects ([15]; female rats, single dose 0.04 mg/kg, Study 31, GLP) was “No significant toxic effects”. The toxic effects ([15]; male rats, single dose 4 mg/kg, Study 27, GLP) was “No significant toxic effects”, the acute toxicity [16, 22] was “well tolerated and no acute toxicities were found” and the toxic effects ([16]; female rabbits, single dose 0.04 mg/kg, Study 32, GLP) was “No significant toxic effects”. For the same compound, the toxic effects ([16]; male rabbits, single dose 4 mg/kg, Study 28, GLP) was “No significant toxic effects”, the Uptake [17] was “Yes” and the Uptake [18] was “Yes”. The “selective retention by tumors” value [19] was “selectively retained by a variety of human and animal tumors”, the Uptake [20] was “Yes” and the Uptake [21] was “Yes”.
